From ChEMBL document CHEMBL1201862, “PubChem BioAssay data set” (2004)
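The compound was tested at five concentrations on cells cultured in 96-well plates, with a 48-hour exposure period. GI50 is the concentration that inhibits growth by half.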 Activity calls are given as the source filed them. No stated cut-off is given here; in the data, active = GI50 up to about 1.1 µM and inactive = higher.

Experiments:
Assay in all cases: inhibition of tumour cell growth, NCI panel, 48 h
SK-MEL-28 = system: SK-MEL-28
LOX IMVI = system: LOX IMVI
Hs-578T = system: Hs-578T
MOLT-4 = system: MOLT-4
NCI-H460 = system: NCI-H460
EKVX = system: EKVX
SK-OV-3 = system: SK-OV-3
OVCAR-3 = system: OVCAR-3
HCT-15 = system: HCT-15
UO-31 = system: UO-31
MDA-MB-435 = system: MDA-MB-435
SF-295 = system: SF-295
NCI/ADR-RES = system: NCI/ADR-RES
SNB-19 = system: SNB-19
IGROV-1 = system: IGROV-1
OVCAR-8 = system: OVCAR-8
SNB-75 = system: SNB-75
RPMI-8226 = system: RPMI-8226
HCC 2998 = system: HCC 2998
T47D = system: T47D
HT-29 = system: HT-29
OVCAR-4 = system: OVCAR-4
M14 = system: M14
NCI-H23 = system: NCI-H23
K562 = system: K562
Malme-3M = system: Malme-3M
DU-145 = system: DU-145
MDA-N = system: MDA-N
CCRF-CEM = system: CCRF-CEM
OVCAR-5 = system: OVCAR-5
786-0 = system: 786-0
HOP-92 = system: HOP-92
COLO 205 = system: COLO 205
BT-549 = system: BT-549
UACC-257 = system: UACC-257
HOP-62 = system: HOP-62
MDA-MB-231 = system: MDA-MB-231
TK-10 = system: TK-10
NCI-H522 = system: NCI-H522
NCI-H226 = system: NCI-H226
SW-620 = system: SW-620
U-251 = system: U-251
CAKI-1 = system: CAKI-1
SF-268 = system: SF-268
SK-MEL-5 = system: SK-MEL-5
RXF 393 = system: RXF 393
PC-3 = system: PC-3
UACC-62 = system: UACC-62
SR = system: SR
SN12C = system: SN12C
SF-539 = system: SF-539
A549 = system: A549
SK-MEL-2 = system: SK-MEL-2
MCF7 = system: MCF7
HCT-116 = system: HCT-116
A498 = system: A498
ACHN = system: ACHN
KM12 = system: KM12

## O=C(CCCc1cccc2[nH]c3c(c12)CN(Cc1ccccc1)CC3)c1ccc(F)cc1
SK-MEL-28
  GI50: > 100 µM (inactive)
LOX IMVI
  GI50: 7.85 µM (inactive)
Hs-578T
  GI50: 99.5 µM (inactive)
MOLT-4
  GI50: 15.3 µM (inactive)
NCI-H460
  GI50: 31.5 µM (inactive)
EKVX
  GI50: > 100 µM (inactive)
SK-OV-3
  GI50: > 47.1 µM (inactive)
OVCAR-3
  GI50: > 100 µM (inactive)
HCT-15
  GI50: 40.3 µM
UO-31
  GI50: > 33.3 µM (inactive)
MDA-MB-435
  GI50: 40.6 µM (inactive)
SF-295
  GI50: > 100 µM (inactive)
NCI/ADR-RES
  GI50: > 100 µM (inactive)
SNB-19
  GI50: > 100 µM (inactive)
IGROV-1
  GI50: > 100 µM (inactive)
OVCAR-8
  GI50: > 100 µM (inactive)
SNB-75
  GI50: > 62.7 µM (inactive)
RPMI-8226
  GI50: 12.8 µM (inactive)
HCC 2998
  GI50: 11.9 µM (inactive)
T47D
  GI50: 15.6 µM (inactive)
HT-29
  GI50: 4.39 µM (inactive)
OVCAR-4
  GI50: > 67 µM (inactive)
M14
  GI50: 42 µM (inactive)
NCI-H23
  GI50: 16.3 µM (inactive)
K562
  GI50: 7.01 µM (inactive)
Malme-3M
  GI50: 40.9 µM (inactive)
DU-145
  GI50: > 100 µM (inactive)
MDA-N
  GI50: 97.5 µM (inactive)
CCRF-CEM
  GI50: 30.4 µM (inactive)
OVCAR-5
  GI50: > 48.1 µM (inactive)
786-0
  GI50: > 52.5 µM (inactive)
HOP-92
  GI50: > 100 µM (inactive)
COLO 205
  GI50: 14.4 µM (inactive)
BT-549
  GI50: > 100 µM (inactive)
UACC-257
  GI50: 2.61 µM (inactive)
HOP-62
  GI50: > 37.4 µM (inactive)
MDA-MB-231
  GI50: > 40.7 µM (inactive)
TK-10
  GI50: > 100 µM (inactive)
NCI-H522
  GI50: 32.4 µM (inactive)
NCI-H226
  GI50: > 95.3 µM (inactive)
SW-620
  GI50: 83.2 µM (inactive)
U-251
  GI50: 49.4 µM (inactive)
CAKI-1
  GI50: > 100 µM (inactive)
SF-268
  GI50: > 100 µM (inactive)
SK-MEL-5
  GI50: 18.2 µM (inactive)
RXF 393
  GI50: > 29.9 µM (inactive)
PC-3
  GI50: > 43.6 µM (inactive)
UACC-62
  GI50: 49.1 µM (inactive)
SR
  GI50: 13 µM (inactive)
SN12C
  GI50: > 100 µM (inactive)
SF-539
  GI50: > 47.8 µM (inactive)
A549
  GI50: > 95.9 µM (inactive)
SK-MEL-2
  GI50: > 100 µM (inactive)
MCF7
  GI50: > 100 µM (inactive)
HCT-116
  GI50: 18.7 µM (inactive)
A498
  GI50: > 100 µM (inactive)
ACHN
  GI50: > 100 µM (inactive)
KM12
  GI50: 39.1 µM (inactive)
